Laboratory results as given in patent publication US20220356174A1, “PYRIDIN-2-ONE COMPOUNDS USEFUL AS SMARCA2 ANTAGONISTS” (Epizyme, Inc., priority 2018, published 2022).
Read-outs that look alike come from different tables or passages of the source.

How the values were obtained:
SMARCA2 = molecular target: T1, SMARCA2 (Homo sapiens, UniProt P51531); assay: SMARCA2 FRET nucleosome remodeling activity assay; assay type: biochemical
T1 construct: FLAG tag (YKDDDDK) (C); made in house; host or cells: Sf21 insect cells (baculovirus, pFastBacI)
Procedure: The SMARCA2 remodeling assay was initiated by the addition of 2 uL of a nucleosome remodeling assay substrate and ATP mixture (final volume=10 uL). […] The assays were terminated after 15 minutes by the addition of 2 uL EDTA (final concentration of 25 mM). The SMARCA2 remodeling activity was determined by measuring the fluorescence ratio of the Cy3 and Cy5 labels ([…]). The remodeling of the nucleosome substrate causes an increase in the spacing between the Cy3 and Cy5 labels and therefore a reduction in FRET and an increase in Cy3/Cy5 fluorescence ratio.

FL-SMARCA4 = FL-SMARCA4 (Homo sapiens, UniProt P51532); assay: SMARCA4 ATPase activity assay (ADP-Glo, chicken mononucleosome substrate)
[1] = molecular target: T2, FL-SMARCA2 (full-length human SMARCA2 isoform 1) (Homo sapiens, UniProt P51531); assay: SMARCA2 ATPase activity assay (ADP-Glo, chicken mononucleosome substrate); assay type: biochemical; settings: ATPase assay, enzyme 5 nM, ATP 250 uM, chicken mononucleosome 10 nM, 30 min preincubation
T2 construct: FLAG tag (YKDDDDK) (C); made in house; host or cells: Sf21 insect cells (baculovirus, pFastBacI)

A549 cells = assay: High-throughput proliferation (HTP) assay for A549 cells (CellTiter-Glo, 7 days); assay type: cell-based; settings: Homo sapiens, 168 h, read-out: A549 SMARCA2 IC50
Procedure, shortened: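 Seven-day growth of A549 (62.5 cells/well, F12K with 10% HI-FBS, 37° C.) with compound, read by CellTiter-Glo ATP luminescence. Percent inhibition scaled between DMSO wells and 10 μM Doxorubicin wells, then fitted for EC50 and IC50.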

H358 cells = assay: High-throughput proliferation (HTP) assay for H358 cells (CellTiter-Glo, 7 days); assay type: cell-based; settings: Homo sapiens, NCI-H358, 168 h, read-out: H358 SMARCA2 IC50
Procedure, shortened: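 Cells were plated at 1,000 cells/well in RPMI 1640 + 10% HI-FBS + 1% pen/strep on pre-dispensed compound and incubated 7 days at 37 °C, 5% CO2. Viability was read as ATP luminescence with CellTiter-Glo after 30 min at RT. DMSO served as 0% and 10 µM doxorubicin as 100% inhibition for EC50/IC50.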

[2] = FL-SMARCA4 IC50, Table 3.2, ATPase assay, enzyme 5 nM, ATP 250 uM, chicken mononucleosome 10 nM, 30 min preincubation
[3] = FL-SMARCA4 IC>50, Table 3c.2, ATPase assay, enzyme 5 nM, ATP 250 uM, chicken mononucleosome 10 nM, 30 min preincubation
[4] = Table 3d.1, read-out: FL-SMARCA2 IC>50

T2 sequence (P51531 with tags, fused parts or gaps): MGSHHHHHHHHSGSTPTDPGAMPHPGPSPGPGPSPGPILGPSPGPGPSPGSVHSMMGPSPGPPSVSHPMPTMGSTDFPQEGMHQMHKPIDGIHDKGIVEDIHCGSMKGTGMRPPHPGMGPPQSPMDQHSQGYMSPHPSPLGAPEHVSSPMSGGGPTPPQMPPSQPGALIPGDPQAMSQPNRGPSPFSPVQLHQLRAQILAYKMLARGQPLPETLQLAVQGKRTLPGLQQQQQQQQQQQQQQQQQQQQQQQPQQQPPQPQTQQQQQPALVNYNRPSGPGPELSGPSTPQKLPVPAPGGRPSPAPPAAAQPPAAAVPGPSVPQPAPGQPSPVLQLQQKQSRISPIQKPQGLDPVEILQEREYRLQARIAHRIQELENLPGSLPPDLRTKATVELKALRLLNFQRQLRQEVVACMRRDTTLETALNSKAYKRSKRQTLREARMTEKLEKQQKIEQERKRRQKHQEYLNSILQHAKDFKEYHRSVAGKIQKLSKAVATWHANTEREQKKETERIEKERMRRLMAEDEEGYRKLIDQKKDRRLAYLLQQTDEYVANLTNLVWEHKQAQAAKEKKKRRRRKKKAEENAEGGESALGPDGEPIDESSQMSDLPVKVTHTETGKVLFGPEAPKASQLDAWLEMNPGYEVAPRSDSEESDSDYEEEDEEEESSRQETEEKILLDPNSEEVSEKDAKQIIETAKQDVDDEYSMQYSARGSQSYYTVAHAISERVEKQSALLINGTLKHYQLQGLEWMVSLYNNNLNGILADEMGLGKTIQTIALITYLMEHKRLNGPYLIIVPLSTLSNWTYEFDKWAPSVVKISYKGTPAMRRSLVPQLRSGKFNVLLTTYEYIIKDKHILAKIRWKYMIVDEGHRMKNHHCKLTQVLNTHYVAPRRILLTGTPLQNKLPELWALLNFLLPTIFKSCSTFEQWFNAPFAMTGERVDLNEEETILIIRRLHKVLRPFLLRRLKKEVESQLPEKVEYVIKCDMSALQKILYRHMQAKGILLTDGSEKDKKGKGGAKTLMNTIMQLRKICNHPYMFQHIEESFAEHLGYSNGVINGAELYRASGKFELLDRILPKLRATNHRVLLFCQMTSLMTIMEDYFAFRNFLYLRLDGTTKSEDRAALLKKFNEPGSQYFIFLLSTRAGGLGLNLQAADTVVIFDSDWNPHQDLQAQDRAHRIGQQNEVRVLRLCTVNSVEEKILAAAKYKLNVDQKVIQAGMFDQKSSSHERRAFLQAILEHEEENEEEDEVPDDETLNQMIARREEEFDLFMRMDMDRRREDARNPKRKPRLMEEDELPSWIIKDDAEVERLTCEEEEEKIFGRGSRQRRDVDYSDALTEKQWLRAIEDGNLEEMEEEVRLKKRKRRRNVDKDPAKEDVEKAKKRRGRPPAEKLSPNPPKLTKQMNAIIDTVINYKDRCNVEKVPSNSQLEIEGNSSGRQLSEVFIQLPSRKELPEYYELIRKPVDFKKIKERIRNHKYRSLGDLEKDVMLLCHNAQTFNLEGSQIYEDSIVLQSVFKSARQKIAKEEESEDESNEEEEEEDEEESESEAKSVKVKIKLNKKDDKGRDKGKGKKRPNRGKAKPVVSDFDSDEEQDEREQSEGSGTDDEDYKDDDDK
T1 sequence (P51531 with tags, fused parts or gaps): as above
Sequence of FL-SMARCA4 (P51532 whole entry, canonical isoform): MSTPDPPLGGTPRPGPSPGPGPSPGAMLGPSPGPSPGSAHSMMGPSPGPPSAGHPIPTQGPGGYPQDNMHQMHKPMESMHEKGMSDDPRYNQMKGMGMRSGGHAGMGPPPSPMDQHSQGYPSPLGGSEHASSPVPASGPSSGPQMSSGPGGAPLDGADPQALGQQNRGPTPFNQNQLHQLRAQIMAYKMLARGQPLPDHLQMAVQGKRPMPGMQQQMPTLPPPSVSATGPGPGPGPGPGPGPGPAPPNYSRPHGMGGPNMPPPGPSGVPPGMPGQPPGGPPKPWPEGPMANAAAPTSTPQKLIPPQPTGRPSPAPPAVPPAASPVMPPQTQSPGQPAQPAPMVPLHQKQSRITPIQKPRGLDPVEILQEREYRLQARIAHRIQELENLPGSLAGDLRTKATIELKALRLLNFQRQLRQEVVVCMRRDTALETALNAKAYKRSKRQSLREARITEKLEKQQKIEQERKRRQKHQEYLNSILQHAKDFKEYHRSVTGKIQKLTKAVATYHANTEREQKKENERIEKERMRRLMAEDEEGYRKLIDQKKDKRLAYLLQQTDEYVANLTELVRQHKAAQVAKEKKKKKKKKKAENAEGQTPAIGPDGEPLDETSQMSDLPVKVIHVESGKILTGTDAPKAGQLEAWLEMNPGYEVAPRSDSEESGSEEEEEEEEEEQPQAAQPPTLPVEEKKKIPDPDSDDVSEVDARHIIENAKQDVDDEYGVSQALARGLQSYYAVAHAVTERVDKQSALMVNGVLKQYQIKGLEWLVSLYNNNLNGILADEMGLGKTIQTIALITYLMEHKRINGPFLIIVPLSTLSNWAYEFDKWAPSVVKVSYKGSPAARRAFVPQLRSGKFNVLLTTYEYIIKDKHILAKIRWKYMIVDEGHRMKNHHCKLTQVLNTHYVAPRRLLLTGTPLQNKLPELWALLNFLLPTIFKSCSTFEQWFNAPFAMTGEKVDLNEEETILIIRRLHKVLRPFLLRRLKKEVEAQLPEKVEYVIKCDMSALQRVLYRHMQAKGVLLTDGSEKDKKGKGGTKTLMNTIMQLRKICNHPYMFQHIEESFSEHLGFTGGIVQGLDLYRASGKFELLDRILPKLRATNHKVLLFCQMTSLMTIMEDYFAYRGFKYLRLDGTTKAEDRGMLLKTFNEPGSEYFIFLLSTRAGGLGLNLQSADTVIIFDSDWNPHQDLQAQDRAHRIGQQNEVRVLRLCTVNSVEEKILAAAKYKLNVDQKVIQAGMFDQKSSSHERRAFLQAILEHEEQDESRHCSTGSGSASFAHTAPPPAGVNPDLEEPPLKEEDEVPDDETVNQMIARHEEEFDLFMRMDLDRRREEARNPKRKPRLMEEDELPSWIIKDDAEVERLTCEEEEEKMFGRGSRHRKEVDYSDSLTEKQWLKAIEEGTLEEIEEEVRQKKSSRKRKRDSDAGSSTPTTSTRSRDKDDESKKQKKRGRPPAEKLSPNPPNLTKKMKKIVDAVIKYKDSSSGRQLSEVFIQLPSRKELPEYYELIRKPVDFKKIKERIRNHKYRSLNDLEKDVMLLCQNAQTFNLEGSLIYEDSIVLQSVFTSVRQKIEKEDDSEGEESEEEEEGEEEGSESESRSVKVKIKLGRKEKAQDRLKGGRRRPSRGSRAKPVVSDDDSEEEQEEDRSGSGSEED

Compound	IC50 (SMARCA2) [nM]	IC50 (FL-SMARCA4; [2]) [nM]	IC50 ([1]; Table 3.1) [nM]	IC50 (A549 cells) [nM]	IC50 (H358 cells) [nM]	IC50 (FL-SMARCA4; [3]) [nM]	IC50 ([1]; Table 3c.1) [nM]	IC50 (FL-SMARCA4; FL-SMARCA4 IC50) [nM]	IC50 [1, 4] [nM]
CCn1cc(NC(=O)c2cc(Cl)c(Cl)n2C)ccc1=O [Compound 1]	7120	39600	2720						
CCn1cc(NC(=O)c2cc(Cl)c(C#N)s2)cc(F)c1=O [Compound 128]	223	161	78.7						
O=C(Nc1cc(F)c(=O)n(CCF)c1)c1cc(Cl)c(Cl)s1 [Compound 129]	114	196	51.2	904					
N#Cc1sc(C(=O)Nc2cc(Cl)c(=O)n(CC(F)(F)F)c2)cc1Cl [Compound 131]	171	303	113						
CCn1cc(NC(=O)c2cnc(C#N)s2)cc(Cl)c1=O [Compound 136]	28.8	184	57.7						
N#Cc1ncc(C(=O)Nc2cc(Cl)c(=O)n(CC(F)(F)F)c2)s1 [Compound 137]	29	111	26						
Cc1nsc(C#Cc2cc(C(=O)Nc3cc(F)c(=O)n(CC(F)F)c3)sc2Cl)n1 [Compound 139c]				639	550	186	59.9		
CC(N)CC#Cc1cc(C(=O)Nc2cc(F)c(=O)n(CC(F)F)c2)sc1Cl (stereo not drawn) [Compound 139d]				> 10000	> 10000			6700	3100
N#Cc1sc(C(=O)Nc2cc(F)c(=O)n(CC(F)(F)F)c2)cc1Cl [Compound 140]	89	147	46.7	1250					
O=C1Cc2ccc(C#Cc3cc(C(=O)Nc4cc(F)c(=O)n(CC(F)F)c4)sc3Cl)cc2N1 [Compound 140c]				> 10000	> 10000	63.3	34		
CN1CCCC(C#Cc2cc(C(=O)Nc3cc(F)c(=O)n(CC(F)F)c3)sc2Cl)C1 (stereo not drawn) [Compound 140d]				7180	> 10000			1770	772
O=C(Nc1cc(F)c(=O)n(CC(F)(F)F)c1)c1cc(Cl)c(Cl)s1 [Compound 141]	399	352	94.1						
Cc1nc2cc(C#Cc3cc(C(=O)Nc4cc(F)c(=O)n(CC(F)F)c4)sc3Cl)ccc2[nH]1 [Compound 141c]				6020	> 10000	59.8	28		
O=C1Cc2c(C#Cc3cc(C(=O)Nc4cc(F)c(=O)n(CC(F)F)c4)sc3Cl)cccc2N1 [Compound 142c]				3210	4650	119	49.9		
O=C(Nc1cc(F)c(=O)n(CC(F)(F)F)c1)c1cnc(Cl)s1 [Compound 143]	168	331	121						
CC(=O)Nc1cc(C#Cc2cc(C(=O)Nc3cc(F)c(=O)n(CC(F)F)c3)sc2Cl)ccn1 [Compound 143c]				458	> 10000	8.17	6.08		
Cn1c(C(=O)Nc2cc(F)c(=O)n(CC(F)(F)F)c2)cc(Cl)c1Cl [Compound 144]	1270	1170	245						
Cn1ccc(C#Cc2cc(C(=O)Nc3cc(F)c(=O)n(CC(F)F)c3)sc2Cl)n1 [Compound 144c]				1680	> 10000	69.1	20.1		
O=C(Nc1ccc(=O)n(CC(F)(F)F)c1)c1cc(Cl)n[nH]1 [Compound 145]	5060	12000	3010						
O=C(Nc1cc(F)c(=O)n(CC(F)F)c1)c1cc(C#Cc2ccc3c(c2)C(=O)NC3)c(Cl)s1 [Compound 145c]				> 10000	> 10000	208	81.7		
CCn1cc(NC(=O)c2cc(Cl)n[nH]2)cc(Cl)c1=O [Compound 146]	2570	3590	1020						
CN1CCn2cc(C#Cc3cc(C(=O)Nc4cc(F)c(=O)n(CC(F)F)c4)sc3Cl)nc2C1 [Compound 146c]				> 10000	> 10000	15300	9540		
O=C(Nc1cc(F)c(=O)n(CC(F)F)c1)c1cc(C#Cc2cn3c(n2)CNCC3)c(Cl)s1 [Compound 147c]				> 10000	> 10000	7960	5240		
N#Cc1ncc(C(=O)Nc2cc(Cl)c(=O)n(CCF)c2)s1 [Compound 148]	22.2		12.7	≥ 20000					
CN(C)Cc1ncc(C#Cc2cc(C(=O)Nc3cc(F)c(=O)n(CC(F)F)c3)sc2Cl)n1C [Compound 148c]				4250	> 10000	432	146		
CN(C)Cc1cc(C#Cc2cc(C(=O)Nc3cc(F)c(=O)n(CC(F)F)c3)sc2Cl)n(C)n1 [Compound 149c]				> 10000	> 10000	16100	8030		
CCn1cc(NC(=O)c2cnc(C#N)s2)cc(F)c1=O [Compound 150]	21.7	94.8	26.6						
N#Cc1ncc(C(=O)Nc2cc(F)c(=O)n(CC(F)(F)F)c2)s1 [Compound 151, 2-Cyano-N-(5-fluoro-6-oxo-1-(2,2,2-trifluoroethyl)-1,6-dihydropyridin-3-yl)thiazole-5-carboxamide]	28.8	67.4	20.4						
N#Cc1cc(C#Cc2cc(C(=O)Nc3cc(F)c(=O)n(CC(F)F)c3)sc2Cl)ccn1 [Compound 151c]				889	4860	111	29.6		

Continued, values first:

IC50 (SMARCA2) [nM]	IC50 (FL-SMARCA4; [2]) [nM]	IC50 ([1]; Table 3.1) [nM]	IC50 (A549 cells) [nM]	IC50 (H358 cells) [nM]	IC50 (FL-SMARCA4; [3]) [nM]	IC50 ([1]; Table 3c.1) [nM]	IC50 (FL-SMARCA4; FL-SMARCA4 IC50) [nM]	IC50 [1, 4] [nM]	Compound
			> 10000	6950	439	211			O=C1CCC(C#Cc2cc(C(=O)Nc3cc(F)c(=O)n(CC(F)F)c3)sc2Cl)CN1 (stereo not drawn) [Compound 153c]
			> 10000	> 10000	147	71.1			CNC(=O)c1cc(C#Cc2cc(C(=O)Nc3cc(F)c(=O)n(CC(F)F)c3)sc2Cl)nn1C [Compound 154c]
			> 10000	> 10000	36200	30800			O=C(Nc1cc(C2COC2)c(=O)n(CC(F)F)c1)c1cc(F)c(Cl)s1 [Compound 155c]
			1370	> 10000	79.7	12.7			N#Cc1sc(C(=O)Nc2cc(F)c(=O)n(CC(F)F)c2)cc1C#CC1COC1 [Compound 177c]
23.4	33.7	9.09	9690						N#Cc1cc(C(=O)Nc2cc(F)c(=O)n(CCF)c2)sc1C#N [Compound 189]
18.1	181	38.2	597						N#Cc1cc(C(=O)Nc2cc(F)c(=O)n(CCF)c2)sc1Cl [Compound 196]
9.22	86.8	27.2	934						N#Cc1sc(C(=O)Nc2cc(F)c(=O)n(CC(F)F)c2)cc1Cl [Compound 285]
407	680	136							O=C(Nc1cc(F)c(=O)n(CCF)c1)c1cc(Cl)c(C(F)F)s1 [Compound 290]
499	736	173							O=C(Nc1cc(F)c(=O)n(CCF)c1)c1cnc(C(F)F)s1 [Compound 295]
	448	75.7	2090	> 10000					O=C(Nc1cc(F)c(=O)n(CC(F)F)c1)c1cnc(C(F)(F)F)s1 [Compound 297, N-(1-(2,2-difluoroethyl)-5-fluoro-6-oxo-1,6-dihydropyridin-3-yl)-2-(trifluoromethyl)thiazole-5-carboxamide]
	738	278	9490	> 10000					C#Cc1cc(NC(=O)c2cc(F)c(Cl)s2)cn(CC(F)F)c1=O [Compound 342]
	108	23	492	> 10000					O=C(Nc1cc(F)c(=O)n(CC(F)F)c1)c1cc(C#CC2COC2)c(Cl)s1 [Compound 343]
	606	181	5240	> 10000					O=C(Nc1cc(F)c(=O)n(CC(F)F)c1)c1cc(C#Cc2cncnc2)c(Cl)s1 [Compound 346]
